According to article PMC12081876, “Identification of PTGR2 inhibitors as a new therapeutic strategy for diabetes and obesity” (EMBO Molecular Medicine, 2025):
Where “and” joins values, the source holds several entries; their conditions need not be identical. Equal values may be shown once.

How the values were obtained:
[1] = system: HFHSD-fed obese C57BL6/J mice; experiment: Bone mineral density of femur (micro CT); format: in vivo, mouse
human PTGR2 (hPTGR2) = biological target: T1, human PTGR2 (hPTGR2) (Homo sapiens, UniProt Q8N8N7); experiment: Recombinant human PTGR2 enzymatic inhibition (NADPH-Glo), IC50; format: biochemical
T1 construct: made in house
T1 sequence (Q8N8N7 whole entry): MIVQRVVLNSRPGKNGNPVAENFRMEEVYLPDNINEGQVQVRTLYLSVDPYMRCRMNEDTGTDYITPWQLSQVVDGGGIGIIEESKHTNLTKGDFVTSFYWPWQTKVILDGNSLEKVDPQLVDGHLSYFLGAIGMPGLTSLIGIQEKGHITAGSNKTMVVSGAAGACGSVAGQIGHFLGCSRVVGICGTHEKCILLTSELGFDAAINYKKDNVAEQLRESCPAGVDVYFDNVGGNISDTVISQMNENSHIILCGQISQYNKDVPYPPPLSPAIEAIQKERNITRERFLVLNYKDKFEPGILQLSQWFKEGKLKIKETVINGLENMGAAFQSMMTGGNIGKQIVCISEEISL
Method: High-throughput compound screening was conducted at the core service in the Genomics Research Center (GRC) of Academia Sinica, Taiwan. The GRC 120 K ReSet comprises more than 125,000 compounds, selected as representatives by structural similarity clustered from the 2 M GRC compound library. The ReSet was arrayed in 1536-well plates as single compounds at 1 mM in 100% DMSO. The quality of all compounds was assured by the vendor (purity is greater than 90%) and was verified internally with 5% random sampling. Recombinant human PTGR2 protein was purified, and the screening was conducted using the NADPH-Glo Detection kit (Promega) to measure the amount of NADPH. The CV of HTS ranged from 4.8% to 6.1%, with a Z’ value of 0.7. The threshold was set as 1.5, resulting in ~300 hits for further confirmation and determination of the half-maximal inhibitory concentration (IC50). […]

Cc1[nH]c2nc(C(C)N3CCN(c4ccccc4)CC3)nn2c(=O)c1Cc1ccc(F)cc1 (centres unmarked) [BPRPT0245]
Bone mineral density ([1]; 100 mg/kg/day oral, 26 weeks, vs vehicle): no difference | Figure 5T value (bone mineral density of femur), individual mice ([1]; individual values, BPRPT0245 group (Figure 5T)): 0.3548 and 0.3423 and 0.3795 and 0.3591 and 0.3711 and 0.3604 and 0.3411 and 0.3634 and 0.3483 and 0.3707 | Figure 5B raw signal of the hPTGR2 inhibition dose-response (replicates) (human PTGR2 (hPTGR2); concentration 4.6 (unit not given)): 5700 and 5540 | Figure 5B raw signal of the hPTGR2 inhibition dose-response (replicates) (human PTGR2 (hPTGR2); concentration 13.7 (unit not given)): 12160 and 11080 and 9760 | Figure 5B raw signal of the hPTGR2 inhibition dose-response (replicates) (human PTGR2 (hPTGR2); concentration 41.2 (unit not given)): 25040 and 27420 and 26900 | Figure 5B raw signal of the hPTGR2 inhibition dose-response (replicates) (human PTGR2 (hPTGR2); concentration 123.5 (unit not given)): 32220 and 32000 and 34120 | Figure 5B raw signal of the hPTGR2 inhibition dose-response (replicates) (human PTGR2 (hPTGR2); concentration 370.4 (unit not given)): 37280 and 38620 and 37900 | Figure 5B raw signal of the hPTGR2 inhibition dose-response (replicates) (human PTGR2 (hPTGR2); concentration 1111.1 (unit not given)): 40200 and 38760 and 38680 | Figure 5B raw signal of the hPTGR2 inhibition dose-response (replicates) (human PTGR2 (hPTGR2); concentration 3333.3 (unit not given)): 40060 and 40940 and 40560 | Figure 5B raw signal of the hPTGR2 inhibition dose-response (replicates) (human PTGR2 (hPTGR2); concentration 10000 (unit not given)): 42020 and 40520 and 40720 | IC50 (human PTGR2 (hPTGR2); human PTGR2 enzymatic activity): 8.92 nM
